Measured values taken from the NIST ThermoML archive (doi:10.1021/je700546r).
“And” between values parts separate entries of the source, which are not always exact repeats. Equal values may be shown once.

What was measured:
[1] = for Triple point temperature: Adiabatic calorimetry
[2] = molar heat capacity at constant pressure; details: 100 kPa, Small (less than 1 g) adiabatic calorimetry

ON=C1CCCCC1 [cyclohexanone oxime]
Details	molar heat capacity at constant pressure [J/K/mol]	vapor or sublimation pressure
[1], 285.7 K, Crystal 2, Transpiration method	–	0.00078 kPa
[1], 288.11 K, Crystal 2, Knudsen effusion	–	0.001028 kPa
[1], 290 K, Crystal 2, Transpiration method	–	0.00118 kPa
[1], 292.6 K, Crystal 2, Transpiration method	–	0.00157 kPa
[1], 293.82 K, Crystal 2, Knudsen effusion	–	0.00186 kPa
[1], 293.87 K, Crystal 2, Knudsen effusion	–	0.001759 kPa
[1], 295.1 K, Crystal 2, Transpiration method	–	0.00215 kPa
[1], 298.1 K, Crystal 2, Transpiration method	–	0.00275 kPa
[1], 298.2 K, Crystal 2, Transpiration method	–	0.00302 kPa and 0.00293 kPa
[1], 298.77 K, Crystal 2, Knudsen effusion	–	0.003118 kPa
[1], 301.1 K, Crystal 2, Transpiration method	–	0.00396 kPa
[1], 302.9 K, Crystal 1, Transpiration method	–	0.005 kPa
[1], 303.73 K, Crystal 1, Knudsen effusion	–	0.005234 kPa
[1], 303.74 K, Crystal 1, Knudsen effusion	–	0.005145 kPa
[1], 305.4 K, Crystal 1, Transpiration method	–	0.00626 kPa
[1], 307.6 K, Crystal 1, Transpiration method	–	0.00806 kPa
[1], 308.7 K, Crystal 1, Knudsen effusion	–	0.00837 kPa
[1], 310.2 K, Crystal 1, Transpiration method	–	0.01034 kPa
[1], 313 K, Crystal 1, Transpiration method	–	0.0136 kPa
[1], 313.62 K, Crystal 1, Knudsen effusion	–	0.01375 kPa
[1], 315.3 K, Crystal 1, Transpiration method	–	0.01601 kPa
[1], 318 K, Crystal 1, Transpiration method	–	0.02155 kPa
[1], 320.3 K, Crystal 1, Transpiration method	–	0.02671 kPa
[1], 323.1 K, Crystal 1, Transpiration method	–	0.03364 kPa
[1], 323.32 K, Crystal 1, Knudsen effusion	–	0.03373 kPa
[1], 323.35 K, Crystal 1, Knudsen effusion	–	0.03472 kPa
[1], 325.4 K, Crystal 1, Transpiration method	–	0.04273 kPa
[1], 328 K, Crystal 1, Transpiration method	–	0.05312 kPa
[1], 330.4 K, Crystal 1, Transpiration method	–	0.06593 kPa
[1], 333.1 K, Crystal 1, Transpiration method	–	0.08234 kPa
[1], 338.2 K, Crystal 1, Transpiration method	–	0.1232 kPa
[1], 340.2 K, Crystal 1, Transpiration method	–	0.1376 kPa
[1], 343.3 K, Crystal 1, Transpiration method	–	0.1758 kPa
[1], 345.6 K, Crystal 1, Transpiration method	–	0.213 kPa
[1], 348.3 K, Crystal 1, Transpiration method	–	0.2639 kPa
[2], 5 K, Crystal 3	0.3674	–
[2], 10 K, Crystal 3	2.982	–
[2], 15 K, Crystal 3	7.554	–
[2], 20 K, Crystal 3	12.9	–
[2], 25 K, Crystal 3	18.36	–
[2], 30 K, Crystal 3	23.53	–
[2], 35 K, Crystal 3	28.21	–
[2], 40 K, Crystal 3	32.42	–
[2], 45 K, Crystal 3	36.26	–
[2], 50 K, Crystal 3	39.78	–
[2], 60 K, Crystal 3	45.91	–
[2], 70 K, Crystal 3	51.28	–
[2], 80 K, Crystal 3	56.24	–
[2], 90 K, Crystal 3	60.87	–
[2], 100 K, Crystal 3	65.47	–
[2], 110 K, Crystal 3	69.94	–
[2], 120 K, Crystal 3	74.33	–
[2], 130 K, Crystal 3	78.7	–
[2], 140 K, Crystal 3	83.1	–
[2], 150 K, Crystal 3	87.59	–
[2], 160 K, Crystal 3	92.16	–
[2], 170 K, Crystal 3	96.94	–
[2], 180 K, Crystal 3	102.1	–
[2], 190 K, Crystal 3	107.7	–
[2], 200 K, Crystal 3	113.9	–
[2], 210 K, Crystal 3	122.3	–
[2], 220 K, Crystal 3	132.6	–
[2], 230 K, Crystal 3	141.9	–
[2], 240 K, Crystal 3	150.7	–
[2], 250 K, Crystal 2	153.4	–
[2], 260 K, Crystal 2	163.4	–
[2], 270 K, Crystal 2	174.5	–
[2], 280 K, Crystal 2	184.4	–
[2], 290 K, Crystal 2	191.9	–
[2], 298.15 K, Crystal 2	196.2	–
[2], 300 K, Crystal 2	197.1	–
[2], 310 K, Crystal 1	192.8	–
[2], 320 K, Crystal 1	197.5	–
[2], 330 K, Crystal 1	203	–
[2], 340 K, Crystal 1	209	–
[2], 350 K, Crystal 1	215.2	–
[2], 360 K, Crystal 1	221.1	–
[2], 362.2 K, Crystal 1	222.4	–
[2], 362.2 K, Liquid	271.5	–
[2], 365 K, Liquid	273.1	–
[2], 370 K, Liquid	276	–

[1], Liquid, Transpiration method
Details	vapor or sublimation pressure [kPa]
364.6 K	0.8624
365.7 K	0.8948
367.9 K	1.03
369.7 K	1.119
370.5 K	1.181
373.6 K	1.388
373.7 K	1.405
376.6 K	1.661
377.7 K	1.759
377.8 K	1.786
379.7 K	1.922
381.8 K	2.124
382.8 K	2.221
385.8 K	2.574
388.9 K	3.046
391.9 K	3.486
394.9 K	3.978

[1]
Details	Triple point temperature [K]
Crystal 1	362.2
Crystal 2	301.5
Crystal 3	241.5
